# pIC50: −log10 of the molar value.
# Molecular target: T1, SARM1 (50-724) (Homo sapiens, UniProt Q6SZW1)
# T1 sequence (Q6SZW1 50-724): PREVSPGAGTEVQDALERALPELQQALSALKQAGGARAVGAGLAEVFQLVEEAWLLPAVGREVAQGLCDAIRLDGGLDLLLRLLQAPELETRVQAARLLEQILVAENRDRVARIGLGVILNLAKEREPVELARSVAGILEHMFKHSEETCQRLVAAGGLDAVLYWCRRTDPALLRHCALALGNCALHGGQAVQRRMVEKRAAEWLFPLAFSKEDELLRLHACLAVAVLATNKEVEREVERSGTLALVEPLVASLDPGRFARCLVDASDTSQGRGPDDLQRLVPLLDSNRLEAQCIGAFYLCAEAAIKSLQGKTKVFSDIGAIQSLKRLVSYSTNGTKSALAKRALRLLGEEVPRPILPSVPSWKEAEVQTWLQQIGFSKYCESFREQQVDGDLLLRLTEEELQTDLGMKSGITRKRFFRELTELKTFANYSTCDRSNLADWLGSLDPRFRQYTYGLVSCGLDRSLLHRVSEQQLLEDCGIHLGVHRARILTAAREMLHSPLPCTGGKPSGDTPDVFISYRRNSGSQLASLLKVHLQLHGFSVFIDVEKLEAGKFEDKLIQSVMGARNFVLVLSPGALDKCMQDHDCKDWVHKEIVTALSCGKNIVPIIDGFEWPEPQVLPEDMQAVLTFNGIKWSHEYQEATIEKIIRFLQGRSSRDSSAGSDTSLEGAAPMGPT
# Experiment: biochemical
# Method: An enzymatic assay was performed in a 384-well plate using Dulbecco's phosphate-buffered saline (PBS) as the reaction buffer. […] The reaction was initiated by adding a mixture of 200 μM nicotinamide mononucleotide (NMN) as activator and 100 μM NAD^+ as substrate. After 1 h of incubation at room temperature, the reaction was terminated with 10 times volume of 70% acetonitrile, then centrifuged at 3800 rpm for 10 min.
row,SMILES,pIC50
1,"CC(Nc1ccc2c(c1)NC(=O)C2(C)C)c1cncc(Cl)c1Cl (racemic) [Compound 267, 6-((1-(4,5-dichloropyridin-3-yl)ethyl)amino)-3,3-dimethylindolin-2-one]",> 7.00
2,"O=C1NCCc2ccc(NS(=O)(=O)c3c(F)cc(F)cc3F)cc21 [Compound 38, 2,4,6-trifluoro-N-(1-oxo-3,4-dihydro-2H-isoquinolin-7-yl)benzenesulfonamide]",< 6.00
3,"CC(Nc1ccc2nc[nH]c(=O)c2c1)c1c(Cl)ccc(Cl)c1Cl (racemic) [Example 195, 6-((1-(2,3,6-trichlorophenyl)ethyl)amino)quinazolin-4(3H)-one]",> 7.00
4,"CC(Nc1ccc2c(c1)C(=O)NC2)c1cccc(Cl)c1Cl (racemic) [Example 120, 6-((1-(2,3-dichlorophenyl)ethyl)amino)isoindolin-1-one]",< 6.00
5,"CC1(C)NC(=O)c2cc(NS(=O)(=O)c3cccc(Cl)c3Cl)ccc21 [Compound 227, 2,3-dichloro-N-(1,1-dimethyl-3-oxoisoindolin-5-yl)benzenesulfonamide]",> 7.00
6,"O=C1NCCc2ccc(NS(=O)(=O)c3cccc(F)c3Cl)cc21 [Compound 53, 2-chloro-3-fluoro-N-(1-oxo-1,2,3,4-tetrahydroisoquinolin-7-yl)benzenesulfonamide]",6.30 to 7.00
7,"N#Cc1c[nH]c(=O)c2cc(NS(=O)(=O)c3cccc(Cl)c3Cl)ccc12 [Compound 63, 2,3-dichloro-N-(4-cyano-1-oxo-1,2-dihydroisoquinolin-7-yl)benzenesulfonamide]",6.30 to 7.00
8,"Cc1nc(C(C)Nc2ccc3cc[nH]c(=O)c3c2)sc1C (racemic) [Example 213, 7-((1-(4,5-dimethylthiazol-2-yl)ethyl)amino)isoquinolin-1(2H)-one]",> 7.00
9,"CC(Nc1cc(F)c2ncn(-c3ncc[nH]3)c(=O)c2c1)c1nc(Cl)c(Cl)s1 (racemic) [Example 375, 6-((1-(4,5-dichlorothiazol-2-yl)ethyl)amino)-8-fluoro-3-(1H-imidazol-2-yl)quinazolin-4(3H)-one]",> 7.00
10,"Cc1c(F)cccc1S(=O)(=O)Nc1ccc2c(c1)CCC(=O)N2 [Compound 8, 3-fluoro-2-methyl-N-(2-oxo-1,2,3,4-tetrahydroquinolin-6-yl)benzenesulfonamide]",< 6.00
11,"O=C1Cc2ccc(NS(=O)(=O)c3cccc(Cl)c3Cl)cc2CN1 [Compound 217, 2,3-dichloro-N-(3-oxo-1,2,3,4-tetrahydroisoquinolin-7-yl)benzenesulfonamide]",6.30 to 7.00
12,"CC(Nc1ccc2nc[nH]c(=O)c2n1)c1c(F)ccc(Cl)c1Cl (racemic) [Compound 349, 6-((1-(2,3-dichloro-6-fluorophenyl)ethyl)amino)pyrido[3,2-d]pyrimidin-4(3H)-one]",> 7.00
13,"[2H]C(C)(Nc1ccc2c(C)n(CC(N)=O)nc2c1)c1nc(Cl)c(Cl)s1 (racemic) [Compound 376, 2-(6-((1-(4,5-dichlorothiazol-2-yl)ethyl-1-d)amino)-3-methyl-2H-indazol-2-yl)acetamide]",> 7.00
14,"Cc1sc(C(C)Nc2ccc3c(C)n(CC(N)=O)nc3c2)nc1Cl (single isomer, unassigned) [Compound 380]",> 7.00
15,"NC(=O)Cn1ccc2ccc(NS(=O)(=O)c3cccc(Cl)c3Cl)cc2c1=O [Compound 306, 2-(7-((2,3-dichlorophenyl)sulfonamido)-1-oxoisoquinolin-2(1H)-yl)acetamide]",> 7.00
16,"CC1(C)CC(=O)c2cc(NS(=O)(=O)c3cccc(Cl)c3Cl)ccc21 [Compound 264, 2,3-dichloro-N-(1,1-dimethyl-3-oxo-2,3-dihydro-1H-inden-5-yl)benzenesulfonamide]",> 7.00
17,"CC(Nc1cc(F)c2nc[nH]c(=O)c2c1)c1nsc(Cl)c1Cl (racemic) [Compound 338, 6-((1-(4,5-dichloroisothiazol-3-yl)ethyl)amino)-8-fluoroquinazolin-4(3H)-one]",> 7.00
18,"Cc1c(Br)cccc1S(=O)(=O)Nc1ccc2cc[nH]c(=O)c2c1 [Compound 191, 3-bromo-2-methyl-N-(1-oxo-1,2-dihydroisoquinolin-7-yl)benzenesulfonamide]",> 7.00
19,"CCC(Nc1ccc2c(OC)n[nH]c(=O)c2c1)c1nc(Cl)c(Cl)s1 (racemic) [Compound 272, 7-((1-(4,5-dichlorothiazol-2-yl)propyl)amino)-4-methoxyphthalazin-1(2H)-one]",> 7.00
20,"CNC(=O)c1nn(C)c2ccc(NC(C)c3c(Cl)ccc(F)c3Cl)cc12 (racemic) [Compound 246, 5-((1-(2,6-dichloro-3-fluorophenyl)ethyl)amino)-N,1-dimethyl-1H-indazole-3-carboxamide]",> 7.00
21,"Cc1n[nH]c2cc(NS(=O)(=O)c3c(Cl)ccc(Cl)c3Cl)ccc12 [Compound 81, 2,3,6-trichloro-N-(3-methyl-1H-indazol-6-yl)benzenesulfonamide]",> 7.00

row,SMILES,pIC50
1,"Cc1n[nH]c(=O)c2cc(NC(C)c3cncc(Cl)c3Cl)ccc12 (racemic) [Compound 275, 7-((1-(4,5-dichloropyridin-3-yl)ethyl)amino)-4-methylphthalazin-1(2H)-one]",> 7.00
2,"COc1ccc(NS(=O)(=O)c2cccc(Cl)c2Cl)cc1C(N)=O [Compound 86, 5-((2,3-dichlorophenyl)sulfonamido)-2-methoxybenzamide]",6.30 to 7.00
3,"O=S(=O)(Nc1ccc2cc[nH]c2c1)c1cccc(Cl)c1Cl [Compound 11, 2,3-dichloro-N-(1H-indol-6-yl)benzenesulfonamide]",> 7.00
4,"O=S(=O)(Nc1cccc(-c2cnccn2)c1)c1cccc(Cl)c1Cl [Compound 83, 2,3-dichloro-N-(3-pyrazin-2-ylphenyl)benzenesulfonamide]",6.30 to 7.00
5,"CC(Nc1ccc2c(c1)NC(=O)CC2)c1cccc(Cl)c1Cl (racemic) [Example 121, 7-((1-(2,3-dichlorophenyl)ethyl)amino)-3,4-dihydroquinolin-2(1H)-one]",6.00 to 6.30
6,"O=S(=O)(Nc1ccc2c(c1)C(O)CCC2)c1cccc(Cl)c1Cl (racemic) [Compound 56, 2,3-dichloro-N-(8-hydroxy-5,6,7,8-tetrahydronaphthalen-2-yl)benzenesulfonamide]",> 7.00
7,"CC(Nc1cc(F)c2ncn(-c3nc[nH]n3)c(=O)c2c1)c1nc(Cl)c(Cl)s1 (racemic) [Example 359, 6-((1-(4,5-dichlorothiazol-2-yl)ethyl)amino)-8-fluoro-3-(1H-1,2,4-triazol-3-yl)quinazolin-4(3H)-one]",> 7.00
8,"CC(Nc1ccc2c(C(F)F)n(CC(N)=O)nc2c1)c1c(F)ccc(Cl)c1Cl (racemic) [Compound 365, 2-(6-((1-(2,3-dichloro-6-fluorophenyl)ethyl)amino)-3-(difluoromethyl)-2H-indazol-2-yl)acetamide]",> 7.00
9,"CC(Nc1ccc2nc[nH]c(=O)c2c1)c1c(Cl)ccc(F)c1Cl (single isomer, unassigned) [Example 201]",> 7.00
10,"CC(Nc1cc(F)c2ncn(CC(N)=O)c(=O)c2c1)c1nc(Cl)c(Cl)s1 (single isomer, unassigned) [Compound 323]",> 7.00
11,"CC(Nc1ccc2cc[nH]c(=O)c2c1)c1cccc(F)c1Cl (racemic) [Example 139, 7-((1-(2-chloro-3-fluorophenyl)ethyl)amino)isoquinolin-1(2H)-one]",6.30 to 7.00
12,"Cc1nn(CC(N)=O)c(=O)c2cc(NC(C)c3c(Cl)ccc(F)c3Cl)ccc12 (racemic) [Compound 300, 2-(7-((1-(2,6-dichloro-3-fluorophenyl)ethyl)amino)-4-methyl-1-oxophthalazin-2(1H)-yl)acetamide]",> 7.00
13,"CC1(C)C(=O)N(CCO)c2cc(NS(=O)(=O)c3cccc(Cl)c3Cl)ccc21 [Compound 240, 2,3-dichloro-N-(1-(2-hydroxyethyl)-3,3-dimethyl-2-oxoindolin-6-yl)benzenesulfonamide]",> 7.00
14,"O=c1[nH]cc(Br)c2ccc(NS(=O)(=O)c3cccc(Cl)c3Cl)cc12 [Compound 57, N-(4-bromo-1-oxo-1,2-dihydroisoquinolin-7-yl)-2,3-dichlorobenzenesulfonamide]",6.30 to 7.00
15,"Cc1c2ccc(NC(C)c3sc(Cl)nc3Cl)cc2nn1CC(N)=O (single isomer, unassigned) [Compound 347]",> 7.00
16,Cc1cc(S(=O)(=O)Nc2ccc(CC(N)=O)cc2)c(F)cc1F [Example 8A],< 6.00
17,"CC(Nc1ccc2cc[nH]c(=O)c2c1)c1nccc(Cl)c1Cl (racemic) [Example 118, 7-((1-(3,4-dichloropyridin-2-yl)ethyl)amino)isoquinolin-1(2H)-one]",> 7.00
18,"CC(Nc1ccc2snc(C(N)=O)c2c1)c1nc(Cl)c(Cl)s1 (racemic) [Compound 345, 5-[1-(4,5-dichlorothiazol-2-yl)ethylamino]-1,2-benzothiazole-3-carboxamide]",> 7.00
19,"CC(Nc1cc(F)c2ncn(-c3ccn[nH]3)c(=O)c2c1)c1nc(Cl)c(Cl)s1 (racemic) [Example 356rac, 6-((1-(4,5-dichlorothiazol-2-yl)ethyl)amino)-8-fluoro-3-(1H-pyrazol-5-yl)quinazolin-4(3H)-one]",> 7.00
20,"CC(Nc1ccc2cc[nH]c(=O)c2c1)c1cc(Cl)ccc1Cl (racemic) [Example 132, 7-((1-(2,5-dichlorophenyl)ethyl)amino)isoquinolin-1(2H)-one]",> 7.00
